Laboratory results reported in patent US20190375778A1, “ADENOSINE DERIVATIVES FOR USE IN THE TREATMENT OF CANCER” (NuCana plc, priority 2016, published 2019).

Assays:
human T-lymphocyte CEM = assay: Cell proliferation (Coulter count) assay, CEM; type: cell-based; details: 72 h, read-out: absolute IC50, CEM
Excerpt: (§1) Lovo: cell line derived from a metastatic site in a patient with colon cancer MCF7: human oestrogen sensitive mammary epithelial cell line PC3: human prostate cancer cell line A549: cancerous lung tissue derived cells L1210: lymphoblast cell line derived from a mouse with lymphocytic leukaemia FM3A: mammary carcinoma murine cells CEM: human T-lymphoblasts, derived from the blood of a patient with acute lymphoblastic leukaemia HeLa: epithelial cells from a patient with cervical adenocarcinoma
(§2) Murine leukemia L1210, human T-lymphocyte CEM, and human cervix carcinoma HeLa cells were obtained from the American Type Culture Collection (ATCC) (Rockville, Md.). All cells were maintained in Dulbecco's modified Eagle's medium (DMEM) (Invitrogen, Carlsbad, Calif.) with 10% fetal bovine serum (FBS) (Biochrom AG, Berlin, Germany), 10 mM Hepes, and 1 mM sodiumpyruvate (Invitrogen). Cells were grown at 37° C. in a humidified incubator with a gas phase of 5% CO2. Monolayer cells (HeLa and […]) were seeded in 96-well microtiter plates (Nunc, Roskilde, Denmark) at 10 000 cells/well. After 24 h, an equal volume of fresh medium containing the test compounds was added. On day 5, cells were trypsinized and counted in a Coulter counter (Analis, Suarlee, Belgium). Suspension cells (L1210, CEM) were seeded in 96-well microtiter plates (Nunc) at 60 000 cells/well in the presence of a given amount of the test compounds. The cells were allowed to proliferate for 48 h (L1210) or 72 h (CEM) and were then counted in a Coulter counter. The 50% inhibitory concentration (IC50) was defined as the compound concentration required to reduce cell proliferation by 50%. The cytostatic activity of the compounds was determined after 3 days, as outlined above.

Murine leukemia L1210 = assay: Cell proliferation (Coulter count) assay, L1210; type: cell-based; details: Mus musculus, 48 h, read-out: absolute IC50, L1210
Excerpt: as §1, §2

[1] = test system: human cervix carcinoma HeLa cells; assay: Cell proliferation (Coulter count) assay, HeLa; type: cell-based; details: 120 h, cell count on day 5, read-out: absolute IC50, HeLa
Excerpt: as §1, §2

K562 = assay: CellTiterGlo viability assay, K562; type: cell-based; details: Homo sapiens, K562, 72 h, read-out: IC50 K562
Procedure: (§3) In vitro viability assay were performed to assess the effects of compounds on cell viability in selected cell lines over ˜72 hrs using the CellTiterGlo (CTG, Promega-G7573) assay. The tests were performed in duplicates with treatment of compounds at 9 points, 3.16 folds titration in 96 well plates over ˜72 hrs. The compound starting concentrations were 198 μM. Cell viability assay using CellTiterGlo in 96-well plate were performed. Compound treatment 72 hrs, standard growth conditions, duplicates. Compounds were dissolved to 40 mM with thawed […]. Compounds were serially diluted at 3.16 fold in thawed DMSO, and warmed to 37° C. before being dissolved in media (2 μl+200 μl). After compounds were dissolved in media, media containing compounds were warmed to 37° C. in incubator and then compounds in media were added to cell plates (50 μl+50 μl) in duplicates. The compounds' final concentrations were from […] to 19.9 nM. All compound solubilities were checked and recorded again, then the plates were transferred to CO2 tissue culture incubator immediately and incubated for 3 days. DMSO final concentration is 0.5%.

HEL92.1.7 = assay: CellTiterGlo viability assay, HEL92.1.7; type: cell-based; details: Homo sapiens, HEL 92.1.7, 72 h, read-out: IC50 HEL92.1.7
Procedure: as §3

KG-1 = assay: CellTiterGlo viability assay, KG-1; type: cell-based; details: Homo sapiens, KG-1, 72 h, read-out: IC50 KG-1
Procedure: as §3

MV4-11 = assay: CellTiterGlo viability assay, MV4-11; type: cell-based; details: Homo sapiens, MV4-11, 72 h, read-out: IC50 MV4-11
Procedure: as §3

HL-60 = assay: CellTiterGlo viability assay, HL-60; type: cell-based; details: Homo sapiens, HL-60, 72 h, read-out: IC50 HL-60
Procedure: as §3

RPMI-8226 = assay: CellTiterGlo viability assay, RPMI-8226; type: cell-based, Human; details: Homo sapiens, RPMI-8226, 72 h, read-out: IC50 RPMI-8226
Procedure: as §3

RL = assay: CellTiterGlo viability assay, RL; type: cell-based; details: Homo sapiens, RL, 72 h, read-out: IC50 RL
Procedure: as §3

NCI-H929 = assay: CellTiterGlo viability assay, NCI-H929; type: cell-based; details: Homo sapiens, NCI-H929, 72 h, read-out: IC50 NCI-H929
Procedure: as §3

CCRFCEM = assay: CellTiterGlo viability assay, CCRFCEM; type: cell-based; details: Homo sapiens, CCRF-CEM, 72 h, read-out: IC50 CCRFCEM
Procedure: as §3

[2] = test system: KG1a leukaemic stem cell compartment (Lin−/CD34+/CD38−/CD123+); assay: Leukaemic stem cell compartment in KG1a; type: cell-based; details: for Change relative to control (%): % LSC compartment versus the series' control; for KG-1a (CD34+/CD38−/CD123+) % compartment: LSC as percentage of viable cells left, 72 hrs
Procedure: A further comparative analysis of the toxicity of compounds in the KG1a cell line over an extended dose range was carried out, and the relative effect assessed of the compounds on the leukaemic stem cell compartment within the KG1a cell line, across the entire dose range. Thus, experimental tests were performed on certain compounds of the present invention to assess their ability to target cancer stem cells in a leukaemic cell line. The acute myeloid leukaemia (AML) cell line, KG1a, was employed to assess the relative effect of compounds on the stem cell compartment. The KG1a cell line was selected because it manifests a minor stem cell-like compartment with a distinct immunophenotype (Lin^−/CD34^+/CD38^−/CD123^+).
Cells of the KG1a cell line were maintained in RPMI medium (Invitrogen, Paisley, UK) supplemented with 100 units/ml penicillin, 100 μg/ml streptomycin and 20% foetal calf serum. Cells were subsequently aliquoted (10^5 cells/100 μl) into 96-well plates and were incubated at 37° C. in a humidified 5% carbon dioxide atmosphere for 72 hrs in the presence of nucleoside analogues and their respective nucleotide analogues (known as ProTides) at concentrations that were experimentally determined for each series of compounds. In addition, control cultures were carried out to which no drug was added. Cells were subsequently harvested by centrifugation and were analyzed by flow cytometry using the Annexin V assay.
KG1a cells were cultured for 72 hrs in the presence of a wide range of concentrations of each compound assayed. Cells were then harvested and labelled with a cocktail of anti-lineage antibodies (PE-cy7), anti-CD34 (FITC), anti-CD38 (PE) and anti-CD123 (PERCP cy5). The sub-population expressing a leukaemic stem cell (LSC) phenotype were subsequently identified and were expressed as a percentage of all viable cells left in the culture. The percentages of stem cells remaining were then plotted on a dose-response graph and the effects of the compounds were compared with 8-chloroadenosine.
The data obtained in these experiments were evaluated using one way ANOVA. All data was confirmed as Gaussian or a Gaussian approximation using the omnibus K2 test. LD50 values were calculated from the non-linear regression and line of best-fit analysis of the sigmoidal dose-response curves. All statistical analyses were performed using Graphpad Prism 6.0 software (Graphpad Software Inc., San Diego, Calif.).

Row | Compound | IC50 (human T-lymphocyte CEM) [µM] | IC50 (Murine leukemia L1210) [µM] | IC50 [1] [µM] | other results
1 | CCCCCOC(=O)[C@H](CC(C)C)NP(=O)(OC[C@H]1O[C@@H](n2c(Cl)nc3c(N)ncnc32)C(O)C1O)Oc1cccc2ccccc12 (stereo partly drawn) [I, 5′-([(Pent-1-yloxy-L-leucin-N-yl)-naphth-1-yl]-phosphatyl) 8-chloroadenosine] | 5 to 15 | 5 to 15 | 0.1 to 5 | 
2 | CCCCCOC(=O)CNP(=O)(OC[C@H]1O[C@@H](n2c(Cl)nc3c(N)ncnc32)C(O)C1O)Oc1cccc2ccccc12 (stereo partly shown) [O, 5′-([(Pent-1-yloxy-glycin-N-yl)-naphth-1-yl]-phosphatyl) 8-chloroadenosine] | 0.1 to 5 | 0.1 to 5 | 0.1 to 5 | IC50 (K562): 5 to 15 µM; IC50 (HEL92.1.7): 15 to 100 µM; IC50 (KG-1): 15 to 100 µM; IC50 (MV4-11): 0.1 to 5 µM; IC50 (HL-60): 15 to 100 µM; IC50 (RPMI-8226): 5 to 15 µM; IC50 (RL): 15 to 100 µM; IC50 (NCI-H929): 15 to 100 µM; IC50 (CCRFCEM): 15 to 100 µM
3 | Nc1ncnc2c1nc(Cl)n2[C@@H]1O[C@H](COP(=O)(N[C@@H](Cc2ccccc2)C(=O)OC2CCCCC2)Oc2cccc3ccccc23)C(O)C1O (stereo partly drawn) [R, 5′-([(Cyclohexyloxy-L-phenylalanin-N-yl)-naphth-1-yl]-phosphatyl) 8-chloroadenosine] | 5 to 15 | 5 to 15 | 0.1 to 5 | 
4 | CCCCCOC(=O)[C@H](Cc1ccccc1)NP(=O)(OC[C@H]1O[C@@H](n2c(Cl)nc3c(N)ncnc32)C(O)C1O)Oc1cccc2ccccc12 (stereo partly drawn) [Q, 5′-([(Pent-1-yloxy-L-phenylalanin-N-yl)-naphth-1-yl]-phosphatyl) 8-chloroadenosine] | 0.1 to 5 | 5 to 15 | 0.1 to 5 | IC50 (K562): 0.1 to 5 µM; IC50 (HEL92.1.7): 0.1 to 5 µM; IC50 (KG-1): 5 to 15 µM; IC50 (MV4-11): 0.1 to 5 µM; IC50 (HL-60): 5 to 15 µM; IC50 (RPMI-8226): 0.1 to 5 µM; IC50 (RL): 5 to 15 µM; IC50 (NCI-H929): 5 to 15 µM; IC50 (CCRFCEM): 5 to 15 µM
5 | C[C@H](NP(=O)(OC[C@H]1O[C@@H](n2c(Cl)nc3c(N)ncnc32)C(O)C1O)Oc1cccc2ccccc12)C(=O)OC1CCCCC1 (stereo partly drawn) [G, 5′-([(Cyclohexyloxy-L-alanin-N-yl)-naphth-1-yl]-phosphatyl) 8-chloroadenosine] | 5 to 15 | 15 to 100 | 0.1 to 5 | 
6 | C[C@H](NP(=O)(N[C@@H](C)C(=O)OCc1ccccc1)OC[C@H]1O[C@@H](n2c(Cl)nc3c(N)ncnc32)C(O)C1O)C(=O)OCc1ccccc1 (stereo partly drawn) [AB, 8-Chloroadenosine 5′-O-bis(benzyloxy-L-alanin-N-yl) phosphate] | 0.1 to 5 | 5 to 15 | 0.1 to 5 | 
7 | CCOC(=O)[C@H](C)NP(=O)(OC[C@H]1O[C@@H](n2c(Cl)nc3c(N)ncnc32)C(O)C1O)Oc1cccc2ccccc12 (stereo partly drawn) [F, 5′-([(Ethyloxy-L-alanin-N-yl)-naphth-1-yl]-phosphatyl) 8-chloroadenosine] | 5 to 15 | 15 to 100 | 0.1 to 5 | 
8 | Nc1ncnc2c1nc(Cl)n2[C@@H]1O[C@H](COP(=O)(N[C@@H](Cc2ccccc2)C(=O)OCc2ccccc2)Oc2cccc3ccccc23)C(O)C1O (stereo partly drawn) [P, 5′-([(Benzyloxy-L-phenylalanin-N-yl)-naphth-1-yl]-phosphatyl) 8-chloroadenosine] | 0.1 to 5 | 5 to 15 | 0.1 to 5 | IC50 (K562): 0.1 to 5 µM; IC50 (HEL92.1.7): 0.1 to 5 µM; IC50 (KG-1): 5 to 15 µM; IC50 (MV4-11): 0.1 to 5 µM; IC50 (HL-60): 0.1 to 5 µM; IC50 (RPMI-8226): 0.1 to 5 µM; IC50 (RL): 5 to 15 µM; IC50 (NCI-H929): 0.1 to 5 µM; IC50 (CCRFCEM): 5 to 15 µM
9 | CCOC(=O)[C@H](Cc1ccccc1)NP(=O)(OC[C@H]1O[C@@H](n2c(Cl)nc3c(N)ncnc32)C(O)C1O)Oc1cccc2ccccc12 (stereo partly drawn) [S, 5′-([(Ethyloxy-L-phenylalanin-N-yl)-naphth-1-yl]-phosphatyl) 8-chloroadenosine] | 5 to 15 | 15 to 100 | 0.1 to 5 | 
10 | CC(C)C[C@H](NP(=O)(OC[C@H]1O[C@@H](n2c(Cl)nc3c(N)ncnc32)C(O)C1O)Oc1cccc2ccccc12)C(=O)OC1CCCCC1 (stereo partly drawn) [J, 5′-([(Cyclohexyloxy-L-leucin-N-yl)-naphth-1-yl]-phosphatyl) 8-chloroadenosine] | 5 to 15 | 5 to 15 | 5 to 15 | 
11 | Nc1ncnc2c1nc(Cl)n2[C@@H]1O[C@H](COP(=O)(NCC(=O)OC2CCCCC2)Oc2cccc3ccccc23)C(O)C1O (stereo partly shown) [M, 5′-([(Cyclohexyloxy-glycin-N-yl)-naphth-1-yl]-phosphatyl) 8-chloroadenosine] | 15 to 100 | 15 to 100 | 15 to 100 | 
12 | CCOC(=O)[C@H](CC(C)C)NP(=O)(OC[C@H]1O[C@@H](n2c(Cl)nc3c(N)ncnc32)C(O)C1O)Oc1cccc2ccccc12 (stereo partly drawn) [K, 5′-([(ethyloxy-L-leucin-N-yl)-naphth-1-yl]-phosphatyl) 8-chloroadenosine] | 5 to 15 | 15 to 100 | 0.1 to 5 | 
13 | CCOC(=O)CNP(=O)(OC[C@H]1O[C@@H](n2c(Cl)nc3c(N)ncnc32)C(O)C1O)Oc1cccc2ccccc12 (stereo partly shown) [N, 5′-([(ethyloxy-glycin-N-yl)-naphth-1-yl]-phosphatyl) 8-chloroadenosine] | 15 to 100 | 15 to 100 | 0.1 to 5 | 
14 | Nc1nc(Cl)nc2c1ncn2[C@H]1C[C@H](O)[C@@H](CO)O1 [Cladribine] |  |  |  | Change relative to control (%) [2]: +2.0%; KG-1a (CD34+/CD38−/CD123+) % compartment [2]: 6.0%
15 | Nc1nc(Cl)nc2c1ncn2[C@@H]1O[C@H](CO)[C@@H](O)[C@@H]1F [Clofarabine] |  |  |  | Change relative to control (%) [2]: −0.2%; KG-1a (CD34+/CD38−/CD123+) % compartment [2]: 3.3%
